Source: PMC9025555, “Chiral Recognition R- and RS- of New Antifungal: Complexation/Solubilization/Dissolution Thermodynamics and Permeability Assay” (Pharmaceutics, 2022)
≈ marks a conversion by molar mass, not a printed value. Where “and” joins values, the source holds several entries; their conditions need not be identical. Equal values may be shown once.

What was measured:
[1] = Phase solubility study (shake-flask) in buffers with 2-HP-β-CD; conditions: for order of the solubility: compared with reported FCZ and L-173
Protocol: An excess amount of the substance was placed in the glass screw-capped vials with the solvent. The vials were stirred in an air thermostat for a certain period of time (a period of 3 days was estimated to be enough for reaching the equilibrium between the solid and the solvent). Then, the saturated solutions were kept in a thermostat in mild conditions no less than 12 h and thereafter centrifuged at a fixed temperature (Biofuge pico, Thermo Electron LED GmbH, Langenselbold, Germany) for 10 min at 12,000 rpm. […] The experimental results were reported as an average of at least three replicated experiments. Temperature uncertainty was ±0.1 K. The sensitivity of UV spectroscopic determinations was characterized by the values of the limit of detection (LOD)/limit of quantification (LOQ).

[2] = Complexation parameters with 2-HP-β-CD from phase-solubility diagrams; assay type: physicochemical; conditions: for increase of the complex stability as compared to L-173: acidic buffer; for Complexation efficiency (CE) / apparent stability constant (KCS): 2-HP-β-CD
Protocol: Thermodynamic functions of the complexation process were determined from the phase solubility diagrams following Higuchi and Connors. The linear AL-type phase-solubility diagrams evidenced the complexes of the first order in respect to cyclodextrin. The equilibrium of the complex formation with 1:1 stoichiometry in the cyclodextrin solution can be described in the following manner:(1) D+CD↔KCD⋅CD where D is the drug molecule, CD is the cyclodextrin molecule, and D·CD is drug/cyclodextrin complex. Respectively, the complexation constant ( KC ) can be expressed by the equation:(2) KC=[D⋅CD]/[D][CD] where [D·CD] is the complex concentration, [CD] is the cyclodextrin concentration, and [D] is the drug concentration. A plot of total solubility ( S2 expressed in molarity—M) in the presence of CD versus CD concentration ( CCD ) (a phase-solubility profile) gives a straight line with a slope equal to (KCS⋅S20/(1+KCS⋅S20)) and intercept equal to S20 from which the apparent stability constants ( KCS ) were estimated via Higuchi–Connors equation [15]:(3) KCS=slope/S20⋅(1−slope), where S20 is the intrinsic solubility of the drug at designated pH in the absence of CD and the slope is the corresponding slope of the phase-solubility diagram.
From CE, the (D:CD) ratio can be derived, which is useful for the estimation of the solubility improvement in CD solutions. Using the CE value, the molar ratio (Drug:CD) was determined:(5) Drug:CD=1:(1+1/CE)

[3] = in vitro; assay type: in vitro ADME
Protocol: Permeability coefficients of RS-186 and R-98 were measured through the PermeaPad barrier (PHABIOC, Germany, Espelkamp, www.permeapad.com, accessed on 20 May 2021) of an effective surface area of 0.785 cm^2 in a vertical type of Franz diffusion cell (PermeGear, Inc., Hellertown, PA, USA) with 7 mL volume. PermeaPad is a biomimetic membrane proposed by di Cagno and Bauer-Brandl for the fast screening of the permeability of the marketed drugs and drug-like compounds. In brief, the barrier was mounted between the donor and receptor chambers. The donor chamber was filled with a stock solution of the investigated substance in buffer solution at pH 2.0 or pH 7.4 and was stirred vigorously during the permeability experiment. The receptor compartment contained 1 mL of the respective fresh buffer. The system was thermostated at 310.15 ± 0.1 K. A probe of 0.5 mL was withdrawn every 30 min from the receptor chamber and replaced with an equal amount of the respective fresh buffer. The permeation process followed the reverse dialysis. The withdrawn samples were analyzed in 96-well UV black plate (Costar) via spectrophotometer (Spectramax 190; Molecular devices, Molecular Devices Corporation, California, CA, USA) at the appropriate wavelength. The permeation profiles were plotted as the amount of the permeated drug over the surface area ( dQ/A ) versus the time ( t ). The flux ( J ) was calculated as a slope of permeation profiles according to the equation:(6) J=dQ/A×dt
The apparent permeability coefficient ( Papp ) was calculated by normalizing the flux measured over the concentration of the drug in the donor compartment ( C0 ), as described by the equation:(7) Papp=J/Co
Each permeability experiment was repeated at least 3 times and the average value of Papp was determined.

O=C1S/C(=C\c2ccc(Cl)cc2)C(=O)N1CC(O)CN1CCN(CC(O)(Cn2cncn2)c2ccc(F)cc2F)CC1 (centres unmarked) [RS-186, (Z)-5-(4-chlorobenzylidene)-3-(3-(4-(2-(2,4-difluorophenyl)-2-hydroxy-3-(1H-1,2,4-triazol-1-yl)propyl)piperazin-1-yl)-2-hydroxypropyl)thiazolidine-2,4-dione]
effect of CD on the solubility (enhancement) ([1]; acidic buffer, 298.15 K): 28 fold | effect of CD on the solubility (enhancement) ([1]; buffer pH 7.4, 298.15 K): 148 fold | Experimental solubility (S2) ([1]; pH 2.0, 298.15 K, 2-HP-β-CD 0 M, S2 10^3/M): 0.50 ± 0.01 10^3/M | Experimental solubility (S2) ([1]; pH 2.0, 298.15 K, 2-HP-β-CD 0.01 M, S2 10^3/M): 3.37 ± 0.08 10^3/M | Experimental solubility (S2) ([1]; pH 2.0, 298.15 K, 2-HP-β-CD 0.03 M, S2 10^3/M): 8.10 ± 0.22 10^3/M | Experimental solubility (S2) ([1]; pH 2.0, 298.15 K, 2-HP-β-CD 0.04 M, S2 10^3/M): 10.90 ± 0.31 10^3/M | Experimental solubility (S2) ([1]; pH 2.0, 298.15 K, 2-HP-β-CD 0.05 M, S2 10^3/M): 13.80 ± 0.40 10^3/M | Experimental solubility (S2) ([1]; pH 2.0, 303.15 K, 2-HP-β-CD 0 M, S2 10^3/M): 0.54 ± 0.01 10^3/M | Experimental solubility (S2) ([1]; pH 2.0, 303.15 K, 2-HP-β-CD 0.01 M, S2 10^3/M): 3.40 ± 0.04 10^3/M | Experimental solubility (S2) ([1]; pH 2.0, 303.15 K, 2-HP-β-CD 0.03 M, S2 10^3/M): 8.37 ± 0.18 10^3/M | Experimental solubility (S2) ([1]; pH 2.0, 303.15 K, 2-HP-β-CD 0.04 M, S2 10^3/M): 11.20 ± 0.19 10^3/M | Experimental solubility (S2) ([1]; pH 2.0, 303.15 K, 2-HP-β-CD 0.05 M, S2 10^3/M): 14.20 ± 0.22 10^3/M | Experimental solubility (S2) ([1]; pH 2.0, 310.15 K, 2-HP-β-CD 0 M, S2 10^3/M): 0.61 ± 0.02 10^3/M | Experimental solubility (S2) ([1]; pH 2.0, 310.15 K, 2-HP-β-CD 0.01 M, S2 10^3/M): 3.64 ± 0.04 10^3/M | Experimental solubility (S2) ([1]; pH 2.0, 310.15 K, 2-HP-β-CD 0.03 M, S2 10^3/M): 8.68 ± 0.19 10^3/M | Experimental solubility (S2) ([1]; pH 2.0, 310.15 K, 2-HP-β-CD 0.04 M, S2 10^3/M): 11.79 ± 0.33 10^3/M | Experimental solubility (S2) ([1]; pH 2.0, 310.15 K, 2-HP-β-CD 0.05 M, S2 10^3/M): 14.88 ± 0.24 10^3/M | Experimental solubility (S2) ([1]; pH 2.0, 313.15 K, 2-HP-β-CD 0 M, S2 10^3/M): 0.69 ± 0.02 10^3/M | Experimental solubility (S2) ([1]; pH 2.0, 313.15 K, 2-HP-β-CD 0.01 M, S2 10^3/M): 3.97 ± 0.03 10^3/M | Experimental solubility (S2) ([1]; pH 2.0, 313.15 K, 2-HP-β-CD 0.03 M, S2 10^3/M): 9.30 ± 0.31 10^3/M | Experimental solubility (S2) ([1]; pH 2.0, 313.15 K, 2-HP-β-CD 0.04 M, S2 10^3/M): 12.90 ± 0.33 10^3/M | Experimental solubility (S2) ([1]; pH 2.0, 313.15 K, 2-HP-β-CD 0.05 M, S2 10^3/M): 15.90 ± 0.40 10^3/M | order of the solubility ([1]; pH 2.0): (FCZ) > (RS-186 ≥ R-98) > (L-173) | solubility in pure buffer solution ([1]; pH 2.0): 500 µM (≈ 310 µg/mL) | solubility of RS-186 greater than R-98 ([1]; pH 7.4): 1.5 fold | Experimental solubility (S2) ([1]; pH 7.4, 298.15 K, 2-HP-β-CD 0 M, S2 10^4/M): 0.27 ± 0.01 10^4/M | Experimental solubility (S2) ([1]; pH 7.4, 298.15 K, 2-HP-β-CD 0.01 M, S2 10^4/M): 3.15 ± 0.02 10^4/M | Experimental solubility (S2) ([1]; pH 7.4, 298.15 K, 2-HP-β-CD 0.03 M, S2 10^4/M): 20.00 ± 0.32 10^4/M | Experimental solubility (S2) ([1]; pH 7.4, 298.15 K, 2-HP-β-CD 0.04 M, S2 10^4/M): 30.70 ± 0.51 10^4/M | Experimental solubility (S2) ([1]; pH 7.4, 298.15 K, 2-HP-β-CD 0.05 M, S2 10^4/M): 40.20 ± 0.58 10^4/M | Experimental solubility (S2) ([1]; pH 7.4, 303.15 K, 2-HP-β-CD 0 M, S2 10^4/M): 0.30 ± 0.01 10^4/M | Experimental solubility (S2) ([1]; pH 7.4, 303.15 K, 2-HP-β-CD 0.01 M, S2 10^4/M): 2.74 ± 0.03 10^4/M | Experimental solubility (S2) ([1]; pH 7.4, 303.15 K, 2-HP-β-CD 0.03 M, S2 10^4/M): 10.60 ± 0.33 10^4/M | Experimental solubility (S2) ([1]; pH 7.4, 303.15 K, 2-HP-β-CD 0.04 M, S2 10^4/M): 15.60 ± 0.41 10^4/M | Experimental solubility (S2) ([1]; pH 7.4, 303.15 K, 2-HP-β-CD 0.05 M, S2 10^4/M): 20.10 ± 0.21 10^4/M | Experimental solubility (S2) ([1]; pH 7.4, 310.15 K, 2-HP-β-CD 0 M, S2 10^4/M): 0.35 ± 0.01 10^4/M | Experimental solubility (S2) ([1]; pH 7.4, 310.15 K, 2-HP-β-CD 0.01 M, S2 10^4/M): 1.93 ± 0.03 10^4/M | Experimental solubility (S2) ([1]; pH 7.4, 310.15 K, 2-HP-β-CD 0.03 M, S2 10^4/M): 5.01 ± 0.05 10^4/M | Experimental solubility (S2) ([1]; pH 7.4, 310.15 K, 2-HP-β-CD 0.04 M, S2 10^4/M): 6.97 ± 0.08 10^4/M | Experimental solubility (S2) ([1]; pH 7.4, 310.15 K, 2-HP-β-CD 0.05 M, S2 10^4/M): 8.58 ± 0.08 10^4/M | Experimental solubility (S2) ([1]; pH 7.4, 313.15 K, 2-HP-β-CD 0 M, S2 10^4/M): 0.37 ± 0.01 10^4/M | Experimental solubility (S2) ([1]; pH 7.4, 313.15 K, 2-HP-β-CD 0.01 M, S2 10^4/M): 1.37 ± 0.06 10^4/M | Experimental solubility (S2) ([1]; pH 7.4, 313.15 K, 2-HP-β-CD 0.03 M, S2 10^4/M): 2.50 ± 0.03 10^4/M | Experimental solubility (S2) ([1]; pH 7.4, 313.15 K, 2-HP-β-CD 0.04 M, S2 10^4/M): 3.20 ± 0.05 10^4/M | Experimental solubility (S2) ([1]; pH 7.4, 313.15 K, 2-HP-β-CD 0.05 M, S2 10^4/M): 3.65 ± 0.05 10^4/M | order of the solubility ([1]; pH 7.4): (FCZ) > (R-98 ≥ RS-186) >> (L-173) | solubility in pure buffer solution ([1]; pH 7.4): 27 µM (≈ 16.7 µg/mL) | increase of the complex stability as compared to L-173 ([2]; 298.15 K): ~2.8 fold | increase of the complex stability as compared to L-173 ([2]; 315.15 K): ~1.8 fold | Complexation efficiency (CE) ([2]; pH 2.0, 298.15 K): 35.4% | apparent stability constant (KCS) ([2]; pH 2.0, 298.15 K): 708.9 M⁻¹ and 708.9 ± 71.4 M⁻¹ | Complexation efficiency (CE) ([2]; pH 2.0, 303.15 K): 36.9% | apparent stability constant (KCS) ([2]; pH 2.0, 303.15 K): 688.0 ± 60.3 M⁻¹ | Complexation efficiency (CE) ([2]; pH 2.0, 310.15 K): 39.1% | apparent stability constant (KCS) ([2]; pH 2.0, 310.15 K): 646.7 ± 61.5 M⁻¹ | Complexation efficiency (CE) ([2]; pH 2.0, 313.15 K): 43.2% | apparent stability constant (KCS) ([2]; pH 2.0, 313.15 K): 623.6 ± 60.0 M⁻¹ | ability for complex formation with CD, racemic compound as compared to R-isomer ([2]; pH 2.0 stability constants (Table 2)): 1.3 fold | CE decrease with the temperature growth ([2]; pH 7.4): 17 fold | Complexation efficiency (CE) ([2]; pH 7.4, 298.15 K): 10.3% | Complexation efficiency (CE) ([2]; pH 7.4, 303.15 K): 4.6% | Complexation efficiency (CE) ([2]; pH 7.4, 310.15 K): 1.7% | Complexation efficiency (CE) ([2]; pH 7.4, 313.15 K): 0.6% | permeability decrease up to 0.03 M concentration of CD in donor solution ([3]; buffer pH 7.4): 8.89 fold | permeability classification (developers of PermeaPad) ([3]; in the presence of 0.01 M CD): low | permeability reduction up to 0.03 M concentration of CD in donor solution ([3]; pH 2.0): 8.72 fold | Permeability Coefficient (Papp) ([3]; pH 2.0, CD 0.01087 M, 310.15 K): (1.12 ± 0.09) × 10^−6 cm·s^−1 | permeability classification (developers of PermeaPad) ([3]; pure buffers, classification of ref 18): medium permeable
